Assay results: patent US20230085307A1, “PYRIDAZINONE COMPOUND AND HERBICIDE” (NISSAN CHEMICAL CORPORATION, priority 2019, published 2023)

Key:
persian speedwell = experiment: Test Example 4: herbicidal effect by soil treatment (Table 19, symbol R); format: in vivo, Persian speedwell (Veronica persica); conditions: amount of applied herbicide 320 g/ha
Method in brief: (§1)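 Pre-emergence style soil spray: seeds under ~1.5 cm sterilized diluvial soil received a uniform coat of emulsion diluted to the predetermined herbicide amount. Greenhouse 25–30° C; readout at week three on previously defined criteria.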

oval-leafed pondweed [1] = experiment: Test Example 1: herbicidal activity, application before weed generation under submerged conditions (Table 16, symbol C); format: in vivo, oval-leafed pondweed (Monochoria vaginalis); conditions: 320 g/ha applied herbicide
Method in brief: (§2)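 Submerged Wagner pots (alluvial soil, 4 cm water) sown with weed seeds and planted with 2.5-leaf rice seedlings; emulsifiable concentrate diluted in water applied to water surface on sowing day. Held in greenhouse at 25-30 °C; injury scored 0-5 by herbicidal rate after three weeks.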

lambsquarters = experiment: Test Example 5: herbicidal effect by foliage application, plastic box (Table 20, symbol O); format: in vivo, lambsquarters (Chenopodium album); conditions: foliage application, AAH 320 g/ha, three weeks after application
Method in brief: (§3)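 Plants were sown into sterilized diluvial soil under about 1.5 cm cover and kept in a greenhouse at 25° C. to 30° C. Fourteen days on, foliage received an even spray of the diluted emulsion. Herbicidal or crop effect was judged three weeks afterwards.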

wild oat = experiment: Test Example 4: herbicidal effect by soil treatment (Table 19, symbol I); format: in vivo, wild oat (Avena fatua); conditions: amount of applied herbicide 320 g/ha
Method in brief: as §1

Japanese bulrush [2] = experiment: Test Example 2: herbicidal activity, application during weed generation under submerged conditions (Table 17, symbol B); format: in vivo, Japanese bulrush (Schoenoplectus juncoides); conditions: AAH 320 g/ha; application during weed generation, submerged conditions
Method in brief: (§4)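 Herbicide emulsion, diluted with water to the chosen amount, is applied onto 4 cm floodwater over alluvial soil where the weeds were co-sown and raised at 25–30° C. Application timing: 1–2 leaves. Assessment: three weeks afterwards.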

rice flat sedge = experiment: Test Example 3: herbicidal effect by foliage application, Wagner pot (Table 18, symbol E); format: in vivo, rice flat sedge (Cyperus iria); conditions: 320 g/ha
Method in brief: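 Plants were sown in alluvial soil held under 0.1–0.5 cm standing water and grown 14 days in a greenhouse at 25–30 °C. An emulsifiable formulation, water-diluted to the set dose, was then sprayed onto the foliage, and effects were scored three weeks later using previously defined criteria.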

southern crabgrass = experiment: Test Example 5: herbicidal effect by foliage application, plastic box (Table 20, symbol F); format: in vivo, southern crabgrass (Digitaria ciliaris); conditions: foliage application, AAH 320 g/ha, three weeks after application
Method in brief: as §3

Japanese bulrush [3] = experiment: Test Example 1: herbicidal activity, application before weed generation under submerged conditions (Table 16, symbol B); format: in vivo, Japanese bulrush (Schoenoplectus juncoides); conditions: 320 g/ha applied herbicide
Method in brief: as §2

velvetleaf = experiment: Test Example 4: herbicidal effect by soil treatment (Table 19, symbol M); format: in vivo, velvetleaf (Abutilon theophrasti); conditions: amount of applied herbicide 320 g/ha
Method in brief: as §1

windgrass [4] = experiment: Test Example 4: herbicidal effect by soil treatment (Table 19, symbol L); format: in vivo, windgrass (Apera spica-venti); conditions: amount of applied herbicide 320 g/ha
Method in brief: as §1

green foxtail [5] = experiment: Test Example 5: herbicidal effect by foliage application, plastic box (Table 20, symbol G); format: in vivo, green foxtail (Setaria viridis); conditions: foliage application, AAH 320 g/ha, three weeks after application
Method in brief: as §3

oval-leafed pondweed [6] = experiment: Test Example 2: herbicidal activity, application during weed generation under submerged conditions (Table 17, symbol C); format: in vivo, oval-leafed pondweed (Monochoria vaginalis); conditions: AAH 320 g/ha; application during weed generation, submerged conditions
Method in brief: as §4

windgrass [7] = experiment: Test Example 5: herbicidal effect by foliage application, plastic box (Table 20, symbol L); format: in vivo, windgrass (Apera spica-venti); conditions: foliage application, AAH 320 g/ha, three weeks after application
Method in brief: as §3

Italian ryegrass = experiment: Test Example 4: herbicidal effect by soil treatment (Table 19, symbol K); format: in vivo, Italian ryegrass (Lolium multiflorum); conditions: amount of applied herbicide 320 g/ha
Method in brief: as §1

green foxtail [8] = experiment: Test Example 4: herbicidal effect by soil treatment (Table 19, symbol G); format: in vivo, green foxtail (Setaria viridis); conditions: amount of applied herbicide 320 g/ha
Method in brief: as §1

chickweed = experiment: Test Example 5: herbicidal effect by foliage application, plastic box (Table 20, symbol P); format: in vivo, common chickweed (Stellaria media); conditions: foliage application, AAH 320 g/ha, three weeks after application
Method in brief: as §3

Row | Structure (SMILES) | herbicidal effect rating, R: persian speedwell (persian speedwell) | Herbicidal effect on C: oval-leafed pondweed (grade 0-5) (oval-leafed pondweed [1]) | O: lambsquarters, herbicidal effect (lambsquarters) | herbicidal effect rating, I: wild oat (wild oat) | herbicidal effect rating, B: Japanese bulrush (Japanese bulrush [2]) | herbicidal effect on E (rice flat sedge), rating 0-5 (rice flat sedge) | F: southern crabgrass, herbicidal effect (southern crabgrass) | Herbicidal effect on B: Japanese bulrush (grade 0-5) (Japanese bulrush [3]) | herbicidal effect rating, M: velvetleaf (velvetleaf) | herbicidal effect rating, L: windgrass (windgrass [4]) | G: green foxtail, herbicidal effect (green foxtail [5]) | herbicidal effect rating, C: oval-leafed pondweed (oval-leafed pondweed [6]) | L: windgrass, herbicidal effect (windgrass [7]) | herbicidal effect rating, K: Italian ryegrass (Italian ryegrass) | herbicidal effect rating, G: green foxtail (green foxtail [8]) | P: chickweed, herbicidal effect (chickweed)
1 | CCCC(=O)Oc1c(C)nn(C)c(=O)c1-c1c(-c2ccc3c(c2)OCCO3)sc2ccccc12 [1-090] | 5 (Herbicidal rate of 90% or more (almost completely withered)) | 5 (Herbicidal rate of 90% or more (almost completely withered)) | 2 (Herbicidal rate of 20% or more and less than 40%) | 0 (Herbicidal rate of 5% or less (almost no effect)) | 3 (Herbicidal rate of 40% or more and less than 70%) | 5 (Herbicidal rate of 90% or more (almost completely withered)) | 3 (Herbicidal rate of 40% or more and less than 70%) | 4 (Herbicidal rate of 70% or more and less than 90%) | 0 (Herbicidal rate of 5% or less (almost no effect)) | 0 (Herbicidal rate of 5% or less (almost no effect)) | 5 (Herbicidal rate of 90% or more (almost completely withered)) | 4 (Herbicidal rate of 70% or more and less than 90%) | 0 (Herbicidal rate of 5% or less (almost no effect)) | 0 (Herbicidal rate of 5% or less (almost no effect)) | 3 (Herbicidal rate of 40% or more and less than 70%) | 4 (Herbicidal rate of 70% or more and less than 90%)
2 | COC(=O)Oc1c(C)nn(C)c(=O)c1-c1c(-c2ccc3c(c2)OCCO3)sc2ccccc12 [1-091] | 5 (Herbicidal rate of 90% or more (almost completely withered)) | 4 (Herbicidal rate of 70% or more and less than 90%) | 4 (Herbicidal rate of 70% or more and less than 90%) | 0 (Herbicidal rate of 5% or less (almost no effect)) | 4 (Herbicidal rate of 70% or more and less than 90%) | 5 (Herbicidal rate of 90% or more (almost completely withered)) | 5 (Herbicidal rate of 90% or more (almost completely withered)) | 4 (Herbicidal rate of 70% or more and less than 90%) | 5 (Herbicidal rate of 90% or more (almost completely withered)) | 0 (Herbicidal rate of 5% or less (almost no effect)) | 5 (Herbicidal rate of 90% or more (almost completely withered)) | 4 (Herbicidal rate of 70% or more and less than 90%) | 1 (Herbicidal rate of 5% or more and less than 20%) | 0 (Herbicidal rate of 5% or less (almost no effect)) | 5 (Herbicidal rate of 90% or more (almost completely withered)) | 5 (Herbicidal rate of 90% or more (almost completely withered))
3 | Cc1nn(C)c(=O)c(-c2c(-c3ccc4c(c3)OCCO4)sc3ccccc23)c1OC(=O)SC(C)(C)C [1-092] | 4 (Herbicidal rate of 70% or more and less than 90%) | 2 (Herbicidal rate of 20% or more and less than 40%) | 3 (Herbicidal rate of 40% or more and less than 70%) | 0 (Herbicidal rate of 5% or less (almost no effect)) | 1 (Herbicidal rate of 5% or more and less than 20%) | 5 (Herbicidal rate of 90% or more (almost completely withered)) | 3 (Herbicidal rate of 40% or more and less than 70%) | 3 (Herbicidal rate of 40% or more and less than 70%) | 0 (Herbicidal rate of 5% or less (almost no effect)) | 0 (Herbicidal rate of 5% or less (almost no effect)) | 3 (Herbicidal rate of 40% or more and less than 70%) | 0 (Herbicidal rate of 5% or less (almost no effect)) | 0 (Herbicidal rate of 5% or less (almost no effect)) | 0 (Herbicidal rate of 5% or less (almost no effect)) | 0 (Herbicidal rate of 5% or less (almost no effect)) | 5 (Herbicidal rate of 90% or more (almost completely withered))
4 | Cc1nn(C)c(=O)c(-c2c(-c3ccc4c(c3)CCO4)sc3ccccc23)c1O [1-101] | 5 (Herbicidal rate of 90% or more (almost completely withered)) | 5 (Herbicidal rate of 90% or more (almost completely withered)) | 4 (Herbicidal rate of 70% or more and less than 90%) | 0 (Herbicidal rate of 5% or less (almost no effect)) | 5 (Herbicidal rate of 90% or more (almost completely withered)) | 5 (Herbicidal rate of 90% or more (almost completely withered)) | 5 (Herbicidal rate of 90% or more (almost completely withered)) | 5 (Herbicidal rate of 90% or more (almost completely withered)) | 0 (Herbicidal rate of 5% or less (almost no effect)) | 4 (Herbicidal rate of 70% or more and less than 90%) | 5 (Herbicidal rate of 90% or more (almost completely withered)) | 5 (Herbicidal rate of 90% or more (almost completely withered)) | 5 (Herbicidal rate of 90% or more (almost completely withered)) | 4 (Herbicidal rate of 70% or more and less than 90%) | 5 (Herbicidal rate of 90% or more (almost completely withered)) | 5 (Herbicidal rate of 90% or more (almost completely withered))
5 | CCCC(=O)Oc1c(C)nn(C)c(=O)c1-c1c(-c2ccc3c(c2)CCO3)sc2ccccc12 [1-102] | 5 (Herbicidal rate of 90% or more (almost completely withered)) | 4 (Herbicidal rate of 70% or more and less than 90%) | 4 (Herbicidal rate of 70% or more and less than 90%) | 1 (Herbicidal rate of 5% or more and less than 20%) | 5 (Herbicidal rate of 90% or more (almost completely withered)) | 5 (Herbicidal rate of 90% or more (almost completely withered)) | 4 (Herbicidal rate of 70% or more and less than 90%) | 5 (Herbicidal rate of 90% or more (almost completely withered)) | 1 (Herbicidal rate of 5% or more and less than 20%) | 0 (Herbicidal rate of 5% or less (almost no effect)) | 5 (Herbicidal rate of 90% or more (almost completely withered)) | 5 (Herbicidal rate of 90% or more (almost completely withered)) | 0 (Herbicidal rate of 5% or less (almost no effect)) | 3 (Herbicidal rate of 40% or more and less than 70%) | 5 (Herbicidal rate of 90% or more (almost completely withered)) | 5 (Herbicidal rate of 90% or more (almost completely withered))
